Measured values: patent publication US4483853A, “Amino acid isomers, their production and their medicinal use” (priority 1981, dated 1984)
Like-named read-outs stand apart in the source and are kept apart here.

Legend:
[1] = system: ibotenic acid-excited receptors; assay: Block of ibotenic acid-excited receptors; details: CNS receptors
sound-induced seizures = assay: Sound-induced (audiogenic) seizures in DBA/2 mice, i.c.v. or i.p. (WR, clonus, tonus); format: in vivo; details: for Minimum dose to suppress WR / ED50 Clonus / ED50 Tonus / ED50 WR / activity (in words): i.c.v., DBA/2 mice; for Minimum dose to suppress WR: 45 minutes before sound, P < .01; for ED50 WR: wild running phase; for order of potency: congeneric series of phosphonic acid analogues, i.c.v. DBA/2 mice
Description: (§1) Dicarboxylic amino acids and their thio-analogues were tested as potential anticonvulsants in animal models of epilepsy by being administered intracerebroventricularly (i.c.v.) or intraperitoneally (i.p.) in mice (either DBA/2 mice showing sound-induced seizures, or Swiss S mice given a just-convulsant dose of pentylenetetrazol, s.c.) or intravenously in baboons, Papio papio, with photosensitive epilepsy. A close correlation was found between the ability of antagonists to block excitation due to NMDA (N-methyl-D-aspartic acid) and suppression of sound-induced seizures following i.c.v. injection in DBA/2 mice. […] Following systemic administration in mice 2-amino-7-phosphonoheptanoic acid was active against sound-induced seizures (0.1-0.33 mmoles/kg, i.p.) and against pentylenetetrazol seizures (1.2 mmoles/kg). It is also active against photosensitive epileptic responses in baboons (1.0 mmoles/kg, i.v.)
(i) Anticonvulsant activity of excitatory amino acid antagonists in DBA/2 mice
DBA/2 mice were chosen as being an inbred strain in which, within a critical age range, a fixed sequence of seizure response can be induced by a loud sound. Groups of DBA/2 mice (N=6 to 10), 21 to 28 days old, were injected intracerebroventricularly under light ether anesthesia with 10 μl of drug solution or phosphate buffer alone (pH 7.3). Auditory stimulation (electric bell generating 109 dB at mouse level) was applied 45 minutes later for 60 seconds or until tonic extension was observed and the incidence and timing of the phases of the seizure response were recorded. These included an initial wild running phase (WR) followed by myocolonus, tonic flexion, and extension and, frequently, respiratory arrest. Seizure response was scored as described in Eur. J. Pharmacol 59, 75 (1979), and comparisons between groups of control and drug-treated animals were made by using Fisher's exact probability test. Successive doses, with a geometric factor of 3, were tested until an adequate log dose-response curve (three to six points) could be constructed for each antagonist for each phase of the seizure response, and ED50 values were graphically determined. A rank order of anticonvulsant potency was allocated to each antagonist for comparison with iontophoretic data; O denoting no activity and X to XXXX denoting increasingly marked activity.
(§2) Studies of audiogenic seizures were performed as described in Example(i). For intraperitoneal administration the antagonist was injected with 0.1 ml of saline 45 minutes before testing. Antagonism of pentylenetetrazol (PTZ: threshold) seizures was studied in random-bred Swiss mice (Tuck T/O strain: 28 days old; 20 to 23 g). Mice in groups (N=10) received pentylenetetrazol (85 mg/kg: 0.85 percent solution in 0.9 percent sodium chloride) subcutaneously in a loose fold of skin on the back of the neck 45 minutes after intracerenroventricular or intraperitoneal administration of drug or vehicle. During the 30-minute observation period sustained rhythmic clonic jerking with tonic spasms occured in 90 to 100 percent of control mice. The incidence and timing of clonic episodes was recorded with absence of sustained clonic jerking (no episode of 5 seconds duration or longer) being defined as protection. The ED50 values and 95 percent fiducial limits were estimated by using the method of moving averages (by the method described in Biometrics 8, 249 (1952) with data from four successive dose levels.

[2] = system: Kainic acid-excited receptors; assay: Block of kainic acid-excited receptors; details: CNS receptors
quisqualate receptor = details: cited from earlier work
NMDA = details: cited from earlier work
[3] = system: kainate-induced excitation; details: cited from earlier work
[4] = system: photosensitive epileptic responses; assay: Photosensitive epilepsy in baboons; format: in vivo, Papio papio; details: i.v.
Description: as §1

[5] = system: pentylenetetrazol seizures; assay: Pentylenetetrazol-induced seizures in Swiss S mice; format: in vivo
Description: as §1, §2

## N[C@H](CCCCCP(=O)(O)O)C(=O)O [(-)-2-Amino-7-phosphonoheptanoic acid]
[1]
  blocking of ibotenic acid-excited receptors: blocker of ibotenic acid-excited receptors
sound-induced seizures
  Minimum dose to suppress WR: 0.0033 μ mole
  ED50 Clonus: 0.0008 μ mole
  ED50 Tonus: 0.0008 μ mole
  ED50 WR: 0.0022 μ mole
[2]
  blocking of Kainic acid-excited receptors: not a blocker of Kainic acid-excited receptors

## NC(CCCCCP(=O)(O)O)C(=O)O (single isomer, unassigned; (+)) [(+)-2-Amino-7-phosphonoheptanoic acid]
sound-induced seizures
  Minimum dose to suppress WR: 0.033 μ mole
  ED50 Clonus: 0.0018 μ mole
  ED50 Tonus: 0.0018 μ mole
  ED50 WR: 0.0135 μ mole

## CCOC(=O)CC[C@H](N)C(=O)OCC [Glutamic acid diethylester, reference compound]
sound-induced seizures
  activity (in words): inactive
Quisqualate receptor
  quisqualate receptor antagonism: quisqualate receptor antagonist

## NC(CCP(=O)(O)O)C(=O)O (racemic) [(±)-2-Amino-4-phosphonobutyric acid, reference compound]
sound-induced seizures
  order of potency: 2-amino-7-phosphonoheptanoate>2-amino-5-phosphonopentanoic acid>2-amino-6-phosphonohexanoic acid>2-amino-4-phosphonobutyric acid

## NC(CCCP(=O)(O)O)C(=O)O (racemic) [(±)-2-Amino-5-phosphonopentanoic acid]
sound-induced seizures
  order of potency: 2-amino-7-phosphonoheptanoate>2-amino-5-phosphonopentanoic acid>2-amino-6-phosphonohexanoic acid>2-amino-4-phosphonobutyric acid
  Minimum dose to suppress WR: 0.1 μ mole
  ED50 Clonus: 0.022 μ mole
  ED50 Tonus: 0.025 μ mole
  ED50 WR: 0.046 μ mole

## NC(CCCCP(=O)(O)O)C(=O)O (racemic) [(±)-2-Amino-6-phosphonohexanoic acid]
sound-induced seizures
  order of potency: 2-amino-7-phosphonoheptanoate>2-amino-5-phosphonopentanoic acid>2-amino-6-phosphonohexanoic acid>2-amino-4-phosphonobutyric acid
  Minimum dose to suppress WR: 0.25 μ mole
  ED50 Clonus: 0.14 μ mole
  ED50 Tonus: 0.15 μ mole
  ED50 WR: 0.17 μ mole

## N[C@H](CCC(=O)NCC(=O)O)C(=O)O [γ-D-Glutamylglycine, reference compound]
NMDA
  antagonism of NMDA-induced excitation: antagonist of both kainate and NMDA-induced excitation
[3]
  antagonism of kainate-induced excitation: antagonist of both kainate and NMDA-induced excitation
sound-induced seizures
  activity (in words): equipotent with 2-amino-5-phosphonoheptanoic acid
  Minimum dose to suppress WR: 0.1 μ mole
  ED50 Clonus: 0.046 μ mole
  ED50 Tonus: 0.054 μ mole
  ED50 WR: 0.058 μ mole

## NC(CCCCCP(=O)(O)O)C(=O)O (racemic) [(±)-2-Amino-7-phosphonoheptanoic acid, (±)2-amino-7-phosphonoheptanoic acid]
sound-induced seizures; Mus musculus, ip, 0.75 h, read-out: Minimum dose to suppress WR
  minimal effective dose: 330 µmol/kg
sound-induced seizures; Mus musculus, ip, read-out: ED50 Clonus
  ED50: 40 µmol/kg
sound-induced seizures; Mus musculus, ip, read-out: ED50 Tonus
  ED50: 40 µmol/kg
sound-induced seizures; Mus musculus, ip, read-out: ED50 WR
  ED50: 180 µmol/kg
sound-induced seizures
  order of potency: 2-amino-7-phosphonoheptanoate>2-amino-5-phosphonopentanoic acid>2-amino-6-phosphonohexanoic acid>2-amino-4-phosphonobutyric acid
  Minimum dose to suppress WR: 0.01 μ mole
  ED50 Tonus: 0.0008 μ mole
  ED50 WR: 0.004 μ mole
sound-induced seizures; mice, i.p.
  active against sound-induced seizures, dose: 0.1 to 0.33 mmol/kg
[4]
  active against photosensitive epileptic responses, dose: 1.0 mmol/kg
[5]; Mus musculus, ip, intraperitoneal, pentylenetetrazol 85 mg/kg s.c., read-out: ED50 V PTZ (95% fiducial limits)
  ED50: 1180 µmol/kg
[5]; intracerebroventricular, pentylenetetrazol 85 mg/kg s.c.
  ED50 V PTZ (95% fiducial limits): 0.64 (0.19-2.13) μ mole
[5]; mice, systemic administration
  active against pentylenetetrazol seizures, dose: 1.2 mmol/kg
